# Assay results published in PMC6696278 (International Journal of Molecular Sciences, 2019).
# Experiments:
# Assay type in all cases: binding
# human galectin-1 = target: T1, human galectin-1 (Homo sapiens, UniProt P09382); assay: competitive fluorescence polarization assay, galectin-1; settings: for Kd: average and SEM of 4–8 single-triple point measurements, PBS
# T1 construct: made in house
# From the text: (§1) Human galectin-1 [25], galectin-2 [26], galectin-3 [27], galectin-4N [19], galectin-4C [19], galectin-8N [28], galectin-8C [28], galectin-9N [29], and galectin-9C [30], were expressed and purified as described earlier. Human galectin-7 was expressed using a pET3c plasmid in E. coli BL21-star. The plasmid containing expression optimized DNA encoding the full human galectin-7 sequence (NCBI Reference Sequence: NP_002298.1) was obtained from GenScript (Piscataway, NJ, USA). […] Lactose was removed by chromatography on a PD-10 column (Amersham Biosciences) with repeated ultrafiltration with Centriprep (Amicon).
# (§2) Fluorescence polarization experiments were carried out either with a POLARStar plate reader and FLUOstar Galaxy software or with a PheraStarFS plate reader and PHERAstar Mars version 2.10 R3 software (BMG, Offenburg, Germany). The dissociation constant (Kd) values were determined in PBS as described earlier. Specific conditions for galectin-1, 2, 3, 4N, 4C, 8N, 8C, 9N, and 9C were kept as reported. Experiments were performed at room temperature with human galectin-7 at 5 µM and the fluorescent probe β-D-galactopyranosyl-(1–4)-2-acetamido-2-deoxy-β-d-glucopyranosyl-(1–3)-β-d-galactopyranosyl-(1–4)-(N1-fluorescein-5-yl-carbonylaminomethylcarbonyl)-β-D-glucopyranosylamine at 0.02 µM. All the compounds in Table 1 except 32 were dissolved in a neat DMSO at 100 mM and diluted in PBS to three to six different concentrations to be tested in duplicate.
# human galectin-3 = target: T2, human galectin-3 (Homo sapiens, UniProt P17931); assay: competitive fluorescence polarization assay, galectin-3; settings: average and SEM, PBS
# T2 construct: made in house; host or cells: vector pET3c (the same vector as galectin-7)
# From the text: as §1, §2
# [1] = target: T3, human galectin-4N (N-terminal domain) (Homo sapiens, UniProt P56470); assay: competitive fluorescence polarization assay, galectin-4N; settings: for Kd: N-terminal domain, average and SEM, PBS
# T3 construct: 4N (N-terminal domain) 4C (C-terminal domain); made in house
# T3 sequence (P56470 19-150 limits assumed): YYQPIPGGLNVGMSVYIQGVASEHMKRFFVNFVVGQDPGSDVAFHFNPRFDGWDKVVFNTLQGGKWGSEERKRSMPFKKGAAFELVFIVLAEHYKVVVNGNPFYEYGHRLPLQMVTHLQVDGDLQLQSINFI
# From the text: (§3) Human galectin-1 [25], galectin-2 [26], galectin-3 [27], galectin-4N [19], galectin-4C [19], galectin-8N [28], galectin-8C [28], galectin-9N [29], and galectin-9C [30], were expressed and purified as described earlier. Human galectin-7 was expressed using a pET3c plasmid in E. coli BL21-star. The plasmid containing expression optimized DNA encoding the full human galectin-7 sequence (NCBI Reference Sequence: NP_002298.1) was obtained from GenScript (Piscataway, NJ, USA). Bacterial culture and induction, and galectin purification was essential as described for galectin-3 expressed with the same vector [27]; a typical yield was 1.5–2 mg/L culture. Lactose was removed by chromatography on a PD-10 column (Amersham Biosciences) with repeated ultrafiltration with Centriprep (Amicon).
# as §2
# human galectin-7 = target: T4, human galectin-7 (Homo sapiens, UniProt P47929); assay: competitive fluorescence polarization assay, galectin-7; settings: average and SEM, PBS, room temperature, galectin-7 at 5 µM, probe 0.02 µM
# T4 construct: made in house; host or cells: E. coli BL21-star, pET3c plasmid (DNA from GenScript)
# From the text: as §3, §2
# [2] = target: T5, human galectin-8N (N-terminal domain) (Homo sapiens, UniProt O00214); assay: competitive fluorescence polarization assay, galectin-8N; settings: PBS
# T5 construct: 4N (N-terminal domain) 4C (C-terminal domain), 7, 8N, 8C, 9N, and 9C; made in house
# T5 sequence (O00214 19-152 limits assumed): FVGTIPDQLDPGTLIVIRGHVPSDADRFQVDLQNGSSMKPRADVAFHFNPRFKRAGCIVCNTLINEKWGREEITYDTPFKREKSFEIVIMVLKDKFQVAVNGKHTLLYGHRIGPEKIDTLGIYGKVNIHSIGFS
# From the text: as §1, §2
# [3] = target: T6, human galectin-8C (C-terminal domain) (Homo sapiens, UniProt O00214); assay: competitive fluorescence polarization assay, galectin-8C; settings: PBS
# T6 construct: 4N (N-terminal domain) 4C (C-terminal domain), 7, 8N, 8C, 9N, and 9C; made in house
# T6 sequence (O00214 187-317 limits assumed): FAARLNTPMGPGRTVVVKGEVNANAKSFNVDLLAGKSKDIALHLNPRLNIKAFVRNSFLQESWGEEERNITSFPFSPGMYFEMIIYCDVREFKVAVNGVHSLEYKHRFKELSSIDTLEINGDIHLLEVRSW
# From the text: as §1, §2
# [4] = target: T7, human galectin-9N (N-terminal domain) (Homo sapiens, UniProt O00182); assay: competitive fluorescence polarization assay, galectin-9N; settings: PBS
# T7 construct: 4N (N-terminal domain) 4C (C-terminal domain), 7, 8N, 8C, 9N, and 9C; made in house
# From the text: as §3, §2
# [5] = target: T8, human galectin-9C (C-terminal domain) (Homo sapiens, UniProt O00182); assay: competitive fluorescence polarization assay, galectin-9C; settings: PBS
# T8 construct: 4N (N-terminal domain) 4C (C-terminal domain), 7, 8N, 8C, 9N, and 9C; made in house
# From the text: as §1, §2
# human galectin-2 = target: T9, human galectin-2 (Homo sapiens, UniProt P05162); assay: competitive fluorescence polarization assay, galectin-2; settings: average and SEM, PBS
# T9 construct: made in house
# T9 sequence (P05162 1-132): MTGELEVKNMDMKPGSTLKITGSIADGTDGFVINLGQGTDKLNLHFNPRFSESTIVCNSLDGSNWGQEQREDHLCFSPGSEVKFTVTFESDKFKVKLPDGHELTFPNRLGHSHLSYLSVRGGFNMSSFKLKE
# From the text: as §3, §2
# [6] = target: T10, human galectin-4C (C-terminal domain) (Homo sapiens, UniProt P56470); assay: competitive fluorescence polarization assay, galectin-4C; settings: PBS
# T10 construct: 4N (N-terminal domain) 4C (C-terminal domain); made in house
# T10 sequence (P56470 194-323 limits assumed): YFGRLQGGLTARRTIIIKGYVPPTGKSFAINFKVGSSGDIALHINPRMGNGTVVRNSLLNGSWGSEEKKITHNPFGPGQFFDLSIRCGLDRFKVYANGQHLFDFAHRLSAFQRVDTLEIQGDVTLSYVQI
# From the text: as §1, §2
# T4 sequence (P47929 whole entry): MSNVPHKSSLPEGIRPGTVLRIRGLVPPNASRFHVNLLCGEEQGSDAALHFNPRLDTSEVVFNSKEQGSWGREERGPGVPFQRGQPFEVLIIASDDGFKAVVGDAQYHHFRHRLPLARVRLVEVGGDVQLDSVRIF
# T7 sequence (O00182 17-148 limits assumed): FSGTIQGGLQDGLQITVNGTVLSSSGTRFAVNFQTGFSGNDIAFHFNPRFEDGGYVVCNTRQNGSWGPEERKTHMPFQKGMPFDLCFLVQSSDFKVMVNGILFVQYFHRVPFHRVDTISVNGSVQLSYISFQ
# T2 sequence (P17931 whole entry): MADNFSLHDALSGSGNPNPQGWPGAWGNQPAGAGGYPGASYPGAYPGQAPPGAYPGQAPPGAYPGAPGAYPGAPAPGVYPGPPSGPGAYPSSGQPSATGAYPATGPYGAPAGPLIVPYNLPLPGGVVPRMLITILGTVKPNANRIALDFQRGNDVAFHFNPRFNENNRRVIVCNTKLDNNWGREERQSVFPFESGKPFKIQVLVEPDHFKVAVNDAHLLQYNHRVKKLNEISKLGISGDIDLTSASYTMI
# T1 sequence (P09382 whole entry): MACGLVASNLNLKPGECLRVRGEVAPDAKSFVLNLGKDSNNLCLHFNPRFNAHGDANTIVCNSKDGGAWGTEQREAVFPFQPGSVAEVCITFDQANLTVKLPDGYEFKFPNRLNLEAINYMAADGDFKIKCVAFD
# T8 sequence (O00182 227-355 limits assumed): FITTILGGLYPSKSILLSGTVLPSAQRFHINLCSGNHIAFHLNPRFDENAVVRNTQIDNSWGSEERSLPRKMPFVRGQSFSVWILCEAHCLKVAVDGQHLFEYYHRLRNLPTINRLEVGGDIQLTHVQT
Kd (human galectin-1; Table 1) [mM],Kd (human galectin-3; Table 1) [mM],Kd ([1]; Table 1) [mM],Kd (human galectin-7; Table 1) [mM],"Kd ([2]; Table 1, average and SEM) [mM]","Kd ([3]; Table 1, average and SEM) [mM]","Kd ([4]; Table 1, average and SEM) [mM]","Kd ([5]; Table 1, average and SEM) [mM]",Kd (human galectin-2; Table 1) [mM],"Kd ([6]; Table 1, average and SEM) [mM]",Kd (human galectin-2; Table 2) [mM],"Kd ([4]; Table 2, average and SEM) [mM]","Kd ([5]; Table 2, average and SEM) [mM]",SMILES,also measured
1.3 ± 0.15,> 4,> 4,> 4,> 4,3.7 ± 0.02,> 4,> 4,,,,,,"CO[C@@H]1O[C@H](CO)[C@H](O)[C@@H](CO)[C@H]1O [Compound 1a, Methyl 3-Deoxy-3-C-Hydroxymethyl-β-D-Gulopyranoside]",fold better affinity for galectin-1 than reference methyl β-D-galactopyranoside 32 (human galectin-1; ratio of Kd values): 7 fold
> 4,> 4,> 4,> 4,> 4,> 4,> 4,> 4,> 4,> 4,,,,"CO[C@@H]1O[C@H](CO)[C@H](O)[C@H](CO)[C@H]1O [Compound 1b, Methyl 3-Deoxy-3-C-Hydroxymethyl-β-D-Galactopyranoside]",binding to galectin-4N (in words) [1]: weak binding
> 4,> 4,> 4,> 4,> 4,> 4,> 4,> 4,> 4,> 4,,,,"CO[C@@H]1O[C@H](CO)[C@H](O)[C@H](COc2cccc(C(F)(F)F)c2)[C@H]1O [Compound 2, Methyl 3-Deoxy-3-C-(3-Trifluoromethylphenoxymethyl)-β-D-Galactopyranoside]",
> 4,> 4,,,> 4,> 4,,,,,,,,"COC[C@H]1[C@@H](O)[C@@H](CO)O[C@@H](OC)[C@@H]1O [Compound 3, Methyl 3-Deoxy-3-C-Methoxymethyl-β-D-Galactopyranoside]",
> 4,> 4,> 4,> 4,> 4,> 4,> 4,> 4,> 4,> 4,,,,"CO[C@@H]1O[C@H](CO)[C@H](O)[C@H](Cn2cc(-c3cccc(F)c3)nn2)[C@H]1O [Compound 4, Methyl 3-Deoxy-3-C-[4-(3-Fluorophenyl)-1H-1,2,3-Triazol-1-Ylmethyl]-β-D-Galactopyranoside]",
> 4,> 4,> 4,> 4,> 4,> 4,> 4,> 4,> 4,> 4,,,,"CO[C@@H]1O[C@H](CO)[C@H](O)[C@H](CNC(=O)Nc2cccc(F)c2)[C@H]1O [Compound 5, Methyl 3-Deoxy-3-C-(3-Fluorophenylureido)Methyl-β-D-Galactopyranoside]",
> 10,> 4,> 4,> 4,> 4,> 4,,> 4,,> 4,,,,"CO[C@@H]1O[C@H](CO)[C@H](O)[C@@H](CNS(=O)(=O)c2ccccc2)[C@H]1O [Compound 6, Methyl 3-Deoxy-3-C-(Phenylsufonamido)Methyl-β-D-Galactopyranoside]",
1.8 ± 0.15,> 4,> 4,> 4,> 4,> 4,,> 4,> 4,> 4,,,,"CO[C@@H]1O[C@H](CO)[C@H](O)[C@@H](CNC(=O)c2ccccc2)[C@H]1O [Compound 7a, Methyl 3-Deoxy-3-C-Benzamidomethyl-β-D-Gulopyranoside]",
,,,,,,,,,,> 4,> 4,> 4,"CO[C@@H]1O[C@H](CO)[C@H](O)[C@@H](CNC(C)=O)[C@H]1O [Compound 7b, Methyl 3-Deoxy-3-C-Acetamidomethyl-β-D-Gulopyranoside]","Kd (human galectin-1; Table 2): 1.5 ± 0.08 mM; Kd (human galectin-3; Table 2): > 4 mM; Kd ([1]; Table 2): 1.9 ± 0.05 mM; Kd ([6]; Table 2, average and SEM): > 4 mM; Kd (human galectin-7; Table 2): > 4 mM; Kd ([2]; Table 2, average and SEM): > 4 mM; Kd ([3]; Table 2, average and SEM): 2.7 ± 0.5 mM"
,,,,,,,,,,> 4,> 4,> 4,"CO[C@@H]1O[C@H](CO)[C@H](O)[C@H](CNC(=O)c2ccccc2F)[C@H]1O [Compound 7c, Methyl 3-Deoxy-3-C-(2-Fluorobenzamidomethyl)-β-D-Galactopyranoside]","Kd (human galectin-1; Table 2): 1.9 ± 0.04 mM; Kd (human galectin-3; Table 2): > 4 mM; Kd ([1]; Table 2): 2.2 ± 0.16 mM; Kd ([6]; Table 2, average and SEM): > 4 mM; Kd (human galectin-7; Table 2): > 4 mM; Kd ([2]; Table 2, average and SEM): > 4 mM; Kd ([3]; Table 2, average and SEM): > 4 mM"
,,,,,,,,,,> 4,> 4,> 4,"CO[C@@H]1O[C@H](CO)[C@H](O)[C@H](CNC(=O)c2cccc(F)c2)[C@H]1O [Compound 7d, Methyl 3-Deoxy-3-C-(3-Fluorobenzamidomethyl)-β-D-Galactopyranoside]","Kd (human galectin-1; Table 2): 1.9 ± 0.4 mM; Kd (human galectin-3; Table 2): > 4 mM; Kd ([1]; Table 2): > 4 mM; Kd ([6]; Table 2, average and SEM): > 4 mM; Kd (human galectin-7; Table 2): > 4 mM; Kd ([2]; Table 2, average and SEM): > 4 mM; Kd ([3]; Table 2, average and SEM): > 4 mM"
,,,,,,,,,,10 ± 1.5,> 4,> 4,"CO[C@@H]1O[C@H](CO)[C@H](O)[C@@H](O)[C@H]1O [Compound 9, Methyl β-D-Gulopyranoside]",Kd (human galectin-7; Table 2): > 4 mM
,,,,,,,,,,> 4,> 4,> 4,"CO[C@@H]1O[C@H](CO)[C@H](O)[C@@H](NC(=O)c2ccccc2)[C@H]1O [Compound 10, Methyl 3-Benzamido-3-Deoxy-β-D-Gulopyranoside]","Kd (human galectin-1; Table 2): > 4 mM; binding to galectin-1 (in words) (human galectin-1; under the assay conditions): no binding; Kd (human galectin-3; Table 2): > 4 mM; binding to galectin-4N (in words) [1]: improved binding; Kd ([1]; Table 2): 1.3 ± 0.2 mM; Kd ([6]; Table 2, average and SEM): > 4 mM; Kd ([2]; Table 2, average and SEM): > 4 mM; Kd ([3]; Table 2, average and SEM): > 4 mM"

SMILES,Kd (human galectin-1; Table 1) [mM],Kd (human galectin-3; Table 1) [mM],Kd ([1]; Table 1) [mM],Kd (human galectin-7; Table 1) [mM],"Kd ([2]; Table 1, average and SEM) [mM]","Kd ([3]; Table 1, average and SEM) [mM]","Kd ([4]; Table 1, average and SEM) [mM]","Kd ([5]; Table 1, average and SEM) [mM]",Kd (human galectin-2; Table 1) [mM],"Kd ([6]; Table 1, average and SEM) [mM]",Kd (human galectin-2; Table 2) [mM],"Kd ([4]; Table 2, average and SEM) [mM]","Kd ([5]; Table 2, average and SEM) [mM]",also measured
"CO[C@@H]1O[C@H](CO)[C@H](O)[C@@H](CNP(=O)(Oc2ccccc2)Oc2ccccc2)[C@H]1O [Compound 8, Methyl 3-Deoxy-3-C-(Diphenylphosphonamidomethyl)-β-D-Galactopyranoside]",> 10,> 4,> 4,> 4,> 4,> 4,,> 5,,> 4,,,,
